In article PMC11290297 (Addiction neuroscience, 2024):

Columns and labels:
α2A-AR [1] = molecular target: T1, α2A-AR (Homo sapiens, UniProt P08913); experiment: TRUPATH BRET2 G-protein activation; format: cell-based; conditions: agonist; Gi1, GoA, Gz
T1 sequence (P08913 1-465): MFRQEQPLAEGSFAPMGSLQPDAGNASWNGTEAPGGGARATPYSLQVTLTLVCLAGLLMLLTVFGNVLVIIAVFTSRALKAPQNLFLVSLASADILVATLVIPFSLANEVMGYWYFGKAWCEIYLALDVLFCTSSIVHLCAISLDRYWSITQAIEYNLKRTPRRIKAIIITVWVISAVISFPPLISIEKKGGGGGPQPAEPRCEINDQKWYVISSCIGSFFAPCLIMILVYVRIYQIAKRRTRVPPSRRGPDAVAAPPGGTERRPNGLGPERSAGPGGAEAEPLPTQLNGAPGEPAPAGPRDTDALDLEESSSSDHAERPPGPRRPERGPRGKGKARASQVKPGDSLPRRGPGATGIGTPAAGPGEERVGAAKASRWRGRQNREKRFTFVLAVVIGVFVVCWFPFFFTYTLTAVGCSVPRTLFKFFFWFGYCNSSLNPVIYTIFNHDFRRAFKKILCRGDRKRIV

[2] = molecular target: T2, kappa opioid receptor (κOR) (Homo sapiens, UniProt P41145); experiment: Gi-GloSensor cAMP assay; format: cell-based
[3] = molecular target: T2, kappa opioid receptor (κOR); experiment: Gi-GloSensor cAMP assay; format: cell-based; remark: listed apart in the source
[4] = molecular target: T2, kappa opioid receptor (κOR); experiment: radioligand competition binding, 3H-U69593
α2A-AR [5] = molecular target: T1, α2A-AR; experiment: radioligand competition binding; conditions: panel labelled α2-AR
α2A-AR [6] = molecular target: T1, α2A-AR; experiment: Gi-GloSensor cAMP assay; format: cell-based; conditions: read-out: potency (pEC50) (converted); full agonist; printed pEC50 of 7.47

Cc1cc(O)cc(C)c1NC1=NCCCS1 [4-hydroxy-xylazine]
pEC50 (α2A-AR [1]): Xylazine, its metabolites, as well as other relevant adrenergic agonists exhibited agonist activity at α2A-AR | pEC50 ([2]; partial agonist): 4-hydroxy-xylazine was less efficacious at κOR overall

Cc1ccc(O)c(C)c1NC1=NCCCS1 [3-hydroxy-xylazine]
pEC50 (α2A-AR [1]): Xylazine, its metabolites, as well as other relevant adrenergic agonists exhibited agonist activity at α2A-AR | pEC50 ([2]; agonist): 3-hydroxy-xylazine was as efficacious, though less potent, as xylazine and salvinorin A

Cc1cccc(C)c1NC1=NCCCS1 [xylazine]
EC50 [3]: 1400 nM | Ki [4]: 470 nM | pKi (α2A-AR [5]): Radioligand competitive binding assay confirms xylazine activity at κOR (A) and α2-AR (B) | EC50 (α2A-AR [6]): 34 nM
